From article PMC6265919, “Acylated Aminooligosaccharides with Inhibitory Effects against α-Amylase from Streptomyces sp. HO1518” (Marine Drugs, 2018)

Biological target: T1, porcine pancreatic α-amylase (PPA) (Sus scrofa, UniProt P00690)
T1 sequence (P00690 16-511): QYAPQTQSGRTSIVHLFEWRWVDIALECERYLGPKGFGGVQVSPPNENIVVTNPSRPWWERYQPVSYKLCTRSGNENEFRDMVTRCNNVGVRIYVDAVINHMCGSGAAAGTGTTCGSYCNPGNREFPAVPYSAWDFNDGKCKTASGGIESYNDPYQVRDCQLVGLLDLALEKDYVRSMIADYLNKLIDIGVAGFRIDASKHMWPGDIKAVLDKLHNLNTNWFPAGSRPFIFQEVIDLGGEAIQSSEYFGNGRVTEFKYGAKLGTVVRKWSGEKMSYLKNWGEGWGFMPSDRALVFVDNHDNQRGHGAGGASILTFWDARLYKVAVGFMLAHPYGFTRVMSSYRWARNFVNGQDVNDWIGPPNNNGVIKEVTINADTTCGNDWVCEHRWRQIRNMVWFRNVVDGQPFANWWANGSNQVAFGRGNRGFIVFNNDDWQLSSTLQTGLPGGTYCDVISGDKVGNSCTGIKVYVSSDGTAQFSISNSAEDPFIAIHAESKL
Test: Porcine pancreatic α-amylase (PPA) inhibitory activity assay (starch-iodine)
Format: biochemical
Details: PPA 50 U/mL, 0.2% soluble starch, phosphate buffer pH 6.9, 20 °C, 30 min; averages of three replicates
Description: Porcine pancreatic α-amylase inhibitory (PPA) inhibitory activity assay was carried out reference to the procedure previously described. In brief, 5 μL of enzyme solution (PPA, 50 U/mL) and 10-fold series diluted test sample solution (inhibitors, dissolved in distilled water) were mixed and pre-incubated. 100 μL of 0.2% soluble starch (substrate, dissolved in 100 mM phosphate buffer, pH 6.9) was added and incubated at 20 °C for 30 min. The reaction was terminated by the addition of 20 μL 1 M HCl. The remaining starch was quantified by using the following method: 100 μL of the reaction solution was mixed with 25 μL of Lugol’s iodine solution. The absorption was measured at 630 nm in the 96-well plates. […] The data were imported into GraphPad Prism version 5.0 (GraphPad Software, San Diego, CA, USA, www.graphpad.com) and the IC50 values were calculated by using a standard dose response curve fitting.

| SMILES | IC50 [nM] |
| --- | --- |
| CC(=O)OC[C@H]1O[C@H](O[C@H]2[C@H](O)[C@@H](O)[C@@H](O[C@H]3[C@H](O)[C@@H](O)[C@@H](O[C@H]4[C@H](O)[C@@H](O)C(O)O[C@@H]4CO)O[C@@H]3CO)O[C@@H]2CO)[C@H](O)[C@@H](O)[C@@H]1O[C@H]1O[C@H](C)[C@@H](N[C@H]2C=C(CO)[C@@H](O[C@H]3O[C@H](CO)[C@@H](O[C@H]4O[C@H](C)[C@@H](N[C@H]5C=C(CO)[C@@H](O)[C@H](O)[C@H]5O)[C@H](O)[C@H]4O)[C@H](O)[C@H]3O)[C@H](O)[C@H]2O)[C@H](O)[C@H]1O (stereo partly drawn) [compound 1, D6-O-acetyl-acarviostatin II03] | 29 ± 1 |
| CC(O)CC(=O)OC[C@H]1O[C@H](O[C@H]2[C@H](O)[C@@H](O)[C@@H](O[C@H]3[C@H](O)[C@@H](O)[C@@H](O[C@H]4[C@H](O)[C@@H](O)C(O)O[C@@H]4CO)O[C@@H]3CO)O[C@@H]2CO)[C@H](O)[C@@H](O)[C@@H]1O[C@H]1O[C@H](C)[C@@H](N[C@H]2C=C(CO)[C@@H](O[C@H]3O[C@H](CO)[C@@H](O[C@H]4O[C@H](C)[C@@H](N[C@H]5C=C(CO)[C@@H](O)[C@H](O)[C@H]5O)[C@H](O)[C@H]4O)[C@H](O)[C@H]3O)[C@H](O)[C@H]2O)[C@H](O)[C@H]1O (stereo partly drawn) [compound 2, D6-O-β-hydroxybutyryl-acarviostatin II03] | 49 ± 16 |
| CC(=O)OC[C@H]1O[C@H](O[C@H]2[C@H](O)[C@@H](O)[C@@H](O[C@H]3[C@H](O)[C@@H](O)[C@@H](O[C@H]4[C@H](O)[C@@H](O)C(O)O[C@@H]4CO)O[C@@H]3CO)O[C@@H]2CO)[C@H](O)[C@@H](O)[C@@H]1O[C@H]1O[C@H](C)[C@@H](N[C@H]2C=C(CO)[C@@H](O)[C@H](O)[C@H]2O)[C@H](O)[C@H]1O (stereo partly drawn) [compound 3, D6-O-acetyl-acarviostatin I03] | 693 ± 97 |
| CCC(=O)OC[C@H]1O[C@H](O[C@H]2[C@H](O)[C@@H](O)[C@@H](O[C@H]3[C@H](O)[C@@H](O)[C@@H](O[C@H]4[C@H](O)[C@@H](O)C(O)O[C@@H]4CO)O[C@@H]3CO)O[C@@H]2CO)[C@H](O)[C@@H](O)[C@@H]1O[C@H]1O[C@H](C)[C@@H](N[C@H]2C=C(CO)[C@@H](O)[C@H](O)[C@H]2O)[C@H](O)[C@H]1O (stereo partly drawn) [compound 4, D6-O-propionyl-acarviostatin I03] | 625 ± 24 |
| CC(O)CC(=O)OC[C@H]1O[C@H](O[C@H]2[C@H](O)[C@@H](O)[C@@H](O[C@H]3[C@H](O)[C@@H](O)[C@@H](O[C@H]4[C@H](O)[C@@H](O)C(O)O[C@@H]4CO)O[C@@H]3CO)O[C@@H]2CO)[C@H](O)[C@@H](O)[C@@H]1O[C@H]1O[C@H](C)[C@@H](N[C@H]2C=C(CO)[C@@H](O)[C@H](O)[C@H]2O)[C@H](O)[C@H]1O (stereo partly drawn) [compound 5, D6-O-β-hydroxybutyryl-acarviostatin I03] | 495 ± 63 |
| C[C@H]1O[C@H](O[C@H]2[C@H](O)[C@@H](O)[C@@H](O[C@H]3[C@H](O)[C@@H](O)[C@@H](O[C@H]4[C@H](O)[C@@H](O)[C@@H](O[C@H]5[C@H](O)[C@@H](O)C(O)O[C@@H]5CO)O[C@@H]4CO)O[C@@H]3CO)O[C@@H]2CO)[C@H](O)[C@@H](O)[C@@H]1N[C@H]1C=C(CO)[C@@H](O[C@H]2O[C@H](CO)[C@@H](O[C@H]3O[C@H](C)[C@@H](N[C@H]4C=C(CO)[C@@H](O)[C@H](O)[C@H]4O)[C@H](O)[C@H]3O)[C@H](O)[C@H]2O)[C@H](O)[C@H]1O (stereo partly drawn) [compound 6, acarviostatin II03] | 29 ± 4 |
